Key:
[1] = The drug is tested on Bacteroides xylanisolvens strain: DSM18836 for biotransformation. The drug concentrations were measured before and after a 12-h incubation by liquid-chromatography-coupled mass spectrometry (LC–MS); details: 2 µM
[2] = The drug is tested on Bacteroides fragilis strain: HMW610 for biotransformation. The drug concentrations were measured before and after a 12-h incubation by liquid-chromatography-coupled mass spectrometry (LC–MS); details: 2 µM
[3] = bacteroides thetaiotaomicron, 12 h, 2 µM
[4] = The drug is tested on Blautia luti strain: DSM14534 for biotransformation. The drug concentrations were measured before and after a 12-h incubation by liquid-chromatography-coupled mass spectrometry (LC–MS); format: ADME; parameters: dose 2 uM, timepoint 0 vs 12 hours; details: 2 µM
[5] = The drug is tested on Bacteroides caccae strain: ATCC43185 for biotransformation. The drug concentrations were measured before and after a 12-h incubation by liquid-chromatography-coupled mass spectrometry (LC–MS); details: 2 µM
[6] = The drug is tested on Odoribacter splanchnicus strain: fecal isolate for biotransformation. The drug concentrations were measured before and after a 12-h incubation by liquid-chromatography-coupled mass spectrometry (LC–MS); details: 2 µM
[7] = The drug is tested on Blautia hansenii strain: DSM20583 for biotransformation. The drug concentrations were measured before and after a 12-h incubation by liquid-chromatography-coupled mass spectrometry (LC–MS); details: 2 µM
[8] = The drug is tested on Dorea formicigenerans strain: ATCC27755 for biotransformation. The drug concentrations were measured before and after a 12-h incubation by liquid-chromatography-coupled mass spectrometry (LC–MS); details: 2 µM
[9] = The drug is tested on Ruminococcus torques strain: ATCC27756 for biotransformation. The drug concentrations were measured before and after a 12-h incubation by liquid-chromatography-coupled mass spectrometry (LC–MS); format: ADME; parameters: dose 2 uM, timepoint 0 vs 12 hours; details: 2 µM
[10] = The drug is tested on Enterococcus faecalis strain: V583 for biotransformation. The drug concentrations were measured before and after a 12-h incubation by liquid-chromatography-coupled mass spectrometry (LC–MS); details: 2 µM
[11] = akkermansia muciniphila, 12 h, 2 µM
[12] = bifidobacterium adolescentis, 12 h, 2 µM
[13] = The drug is tested on Bacteroides uniformis strain: ATCC8492 for biotransformation. The drug concentrations were measured before and after a 12-h incubation by liquid-chromatography-coupled mass spectrometry (LC–MS); details: 2 µM
[14] = The drug is tested on Parabacteroides merdae strain: ATCC43184 for biotransformation. The drug concentrations were measured before and after a 12-h incubation by liquid-chromatography-coupled mass spectrometry (LC–MS); details: 2 µM
[15] = The drug is tested on Bacteroides ovatus strain: ATCC8483 for biotransformation. The drug concentrations were measured before and after a 12-h incubation by liquid-chromatography-coupled mass spectrometry (LC–MS); details: 2 µM
[16] = The drug is tested on Edwardsiella tarda strain: ATCC23685 for biotransformation. The drug concentrations were measured before and after a 12-h incubation by liquid-chromatography-coupled mass spectrometry (LC–MS); details: 2 µM
[17] = enterocloster bolteae, 12 h, 2 µM
[18] = limosilactobacillus reuteri cf48-3a, 12 h, 2 µM
[19] = The drug is tested on Providencia rettgeri strain: DSM1131 for biotransformation. The drug concentrations were measured before and after a 12-h incubation by liquid-chromatography-coupled mass spectrometry (LC–MS); format: ADME; parameters: dose 2 uM, timepoint 0 vs 12 hours; details: 2 µM

Measured: Bacterial Biotransformation

CC(=O)CCCCn1c(=O)c2c(ncn2C)n(C)c1=O [PENTOXIFYLLINE]
not listed: [17] | [18] | [19]
Compound NOT metabolized: all other assays above

CCN(CC)C(C)CN1c2ccccc2Sc2ccccc21 (stereo not given) [ETHOPROPAZINE]
Compound NOT metabolized: [2] | [4] | [17] | [8] | [10] | [11] | [12]
Compound metabolized: [1] | [3] | [5] | [6] | [7] | [13] | [15]

CN1[C@@H]2CC[C@H]1C[C@@H](OC(=O)C(CO)c1ccccc1)C2 (stereo not given in full) [ATROPINE]
not listed: [3] | [10] | [14] | [15] | [16] | [17]
Compound NOT metabolized: all other assays above

Br.COc1ccc2c(c1)[C@]13CCCC[C@@H]1[C@H](C2)N(C)CC3.O [DEXTROMETHORPHAN HYDROBROMIDE]
not listed: [1] | [2] | [6] | [11]
Compound NOT metabolized: all other assays above

CCN(CC)CC#CCOC(=O)C(O)(c1ccccc1)C1CCCCC1.Cl (stereo not given) [OXYBUTYNIN CHLORIDE]
Compound NOT metabolized: [3] | [5] | [18] | [19] | [12] | [14] | [15]
not listed: [9] | [11] | [17]
Compound metabolized: all other assays above

CN1CCC(OC(c2ccccc2)c2ccccc2)CC1
not listed: [1] | [2] | [11] | [17]
Compound NOT metabolized: all other assays above

CN(C(=O)CN(CCO)CC(=O)N(C)C(C)(C)Cc1ccccc1)C(C)(C)Cc1ccccc1 [OXETHAZAINE]
not listed: [1] | [13] | [17] | [18] | [19]
Compound NOT metabolized: all other assays above

COc1ccc([C@@H]2Sc3ccccc3N(CCN(C)C)C(=O)[C@@H]2OC(C)=O)cc1 [DILTIAZEM]
Compound NOT metabolized: [2] | [4] | [6] | [17] | [10] | [12] | [16]
not listed: [18] | [19]
Compound metabolized: all other assays above

Cc1ccc(NC(=O)c2ccc(CN3CCN(C)CC3)cc2)cc1Nc1nccc(-c2cccnc2)n1 [IMATINIB]
Compound metabolized: [1]
not listed: [18] | [19]
Compound NOT metabolized: all other assays above

OC(Cn1cncn1)(Cn1cncn1)c1ccc(F)cc1F [FLUCONAZOLE]
Compound NOT metabolized: [4] | [5] | [18] | [17] | [10] | [12] | [14] | [16]
not listed: [19]
Compound metabolized: all other assays above
